The test system of this test is BDF1 mice, P388 leukemia ip, median survival T/C. Description: NCI In Vivo Anticancer Drug Screen. Data for tumor model P388 Leukemia (intraperitoneal) in B6D2F1 (BDF1) mice. The conditions noted are these: endpoint: median survival time, higher = longer survival. In outline: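 Compound-treated tumour-bearing mice were compared with vehicle-treated controls. Survival was recorded, and the value is the treated-group measurement divided by the control-group measurement (T/C).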

[1] abbreviates: dose: 100.0 mg/kg/injection, schedule: Q04DX003 (ip), vehicle: saline.
[2] abbreviates: dose: 200.0 mg/kg/injection, schedule: Q04DX003 (ip), vehicle: saline.
[3] abbreviates: dose: 50.0 mg/kg/injection, schedule: Q01DX009 (ip), vehicle: saline with Tween-80.
The mark [4] stands for this setting: dose: 100.0 mg/kg/injection, schedule: Q01DX009 (ip), vehicle: saline with Tween-80.
The mark [5] stands for this setting: dose: 200.0 mg/kg/injection, schedule: Q01DX009 (ip), vehicle: saline with Tween-80.
Setting [6] is: dose: 50.0 mg/kg/injection, schedule: Q01DX009 (ip), vehicle: saline.
The mark [7] stands for this setting: dose: 50.0 mg/kg/injection, schedule: Q04DX003 (ip), vehicle: saline with Tween-80.
Where [8] appears, read: dose: 100.0 mg/kg/injection, schedule: Q04DX003 (ip), vehicle: saline with Tween-80.
[9] abbreviates: dose: 200.0 mg/kg/injection, schedule: Q04DX003 (ip), vehicle: saline with Tween-80.
Where [10] appears, read: dose: 400.0 mg/kg/injection, schedule: Q04DX003 (ip), vehicle: saline with Tween-80.
[11] abbreviates: dose: 100.0 mg/kg/injection, schedule: Q01DX009 (ip), vehicle: other.
[12] abbreviates: dose: 200.0 mg/kg/injection, schedule: Q01DX009 (ip), vehicle: other.
Setting [13] is: dose: 400.0 mg/kg/injection, schedule: Q01DX009 (ip), vehicle: saline with Tween-80.
Setting [14] is: dose: 12.5 mg/kg/injection, schedule: Q01DX009 (ip), vehicle: saline with Tween-80.
Where [15] appears, read: dose: 25.0 mg/kg/injection, schedule: Q01DX009 (ip), vehicle: saline with Tween-80.

Where “and” joins values, the source holds several entries; their conditions need not be identical. Equal values may be shown once. Inconclusive results and toxic doses are left out.

Regarding `O=C(Nc1cccc(C(F)(F)F)c1)Nc1c(Oc2ccc(Cl)c(Cl)c2)ccc(Cl)c1S(=O)(=O)O`, the T/C is, setting by setting: (dose: 50.0 mg/kg/injection, schedule: Q04DX003 (ip), vehicle: saline) 90 % of control; under setting [1], 100 % of control; under setting [2], 113 % of control.
For `C(=C\CN(Cc1ccccc1)Cc1ccccc1)/CN(Cc1ccccc1)Cc1ccccc1`, the T/C (dose: 50.0 mg/kg/injection, schedule: Q01DX009 (ip), vehicle: Klucel (hydroxypropylcellulose) (HPC)) is 104 % of control; the T/C (dose: 100.0 mg/kg/injection, schedule: Q01DX009 (ip), vehicle: Klucel (hydroxypropylcellulose) (HPC)) is 104 % of control; the T/C (dose: 200.0 mg/kg/injection, schedule: Q01DX009 (ip), vehicle: Klucel (hydroxypropylcellulose) (HPC)) was 95 % of control.
`CNCc1c2c(O)c3c(O)c(C)c4c(c3c1O)C(=O)C(C)(O/C=C/C(OC)C(C)C(OC(C)=O)C(C)C(O)C(C)C(O)C(C)/C=C/C=C(/C)C(=O)N2)O4` (stereo not drawn): the T/C under setting [3] was 100 % of control, the T/C under setting [4] was 89 % of control and the T/C under setting [5] was 116 % of control.
In the case of `CCOCN(COCC)c1cccc(Cl)c1`, the T/C is, setting by setting: under setting [3], 100 % of control and 115 % of control; under setting [4], 118 % of control; under setting [5], 118 % of control.
Consider `O=C(O)CNC(CSCc1ccccc1)CSCc1ccccc1`, for which the T/C reads like this: (dose: 25.0 mg/kg/injection, schedule: Q04DX003 (ip), vehicle: saline with Tween-80) 101 % of control; under setting [6], 93 % of control; under setting [7], 106 % of control; (dose: 100.0 mg/kg/injection, schedule: Q01DX009 (ip), vehicle: saline) 112 % of control; under setting [8], 98 % of control; (dose: 200.0 mg/kg/injection, schedule: Q01DX009 (ip), vehicle: saline) 111 % of control. Moreover, the T/C under setting [9] was 97 % of control; the T/C (dose: 400.0 mg/kg/injection, schedule: Q01DX009 (ip), vehicle: saline) was 116 % of control; the T/C under setting [10] is 97 % of control.
On to `CCCCCCCCCC(O)CCCCCCCCC`, for which the T/C under setting [11] was 100 % of control; the T/C under setting [12] was 95 % of control; the T/C (dose: 400.0 mg/kg/injection, schedule: Q01DX009 (ip), vehicle: other) is 110 % of control.
Regarding `CN(C)C(CCc1ccccc1)C(=O)O` (stereo not drawn), the T/C reads like this: under setting [1], 100 % of control; under setting [2], 104 % of control.
As for `CS(=O)(=O)Nc1ccccc1O`, the T/C was 96 % of control (dose: 50.0 mg/kg/injection, schedule: Q01DX009 (ip), vehicle: other); 104 % of control under setting [11]; 97 % of control under setting [12].
As to `O=C(O)CCC(=O)Nc1ccccc1C(F)(F)F`, the T/C under setting [4] is 100 % of control, the T/C under setting [5] was 109 % of control and the T/C under setting [13] was 90 % of control.
Turning to `CO[C@@]12[C@H](COC(N)=O)C3=C(C(=O)C(C)=C(N)C3=O)N1C[C@H]1[C@@H]2N1C(=O)[C@@H]1N2C(=O)[C@@H](NC(=O)Cc3ccccc3)[C@H]2SC1(C)C`, the T/C (dose: 12.5 mg/kg/injection, schedule: Q01DX009 (ip), vehicle: saline) was 151 % of control; the T/C (dose: 25.0 mg/kg/injection, schedule: Q01DX009 (ip), vehicle: saline) is 160 % of control; the T/C under setting [6] is 210 % of control.
As to `COc1ccc(Cc2cc3cc(OC)c(OC)cc3cn2)cc1OC`, the T/C is 110 % of control under setting [8]; 103 % of control under setting [5]; 112 % of control under setting [9]; 114 % of control (dose: 300.0 mg/kg/injection, schedule: Q01DX009 (ip), vehicle: saline with Tween-80); 103 % of control under setting [13]; 116 % of control under setting [10]. Further, the T/C (dose: 500.0 mg/kg/injection, schedule: Q01DX009 (ip), vehicle: saline with Tween-80) was 103 % of control.
For `COC1/C=C/OC2(C)Oc3c(C)c(O)c4c(O)c(c(/C=N/NC5CCCCCCCCCCCCCC5)c(O)c4c3C2=O)NC(=O)/C(C)=C\C=C\C(C)C(O)C(C)C(O)C(C)C(OC(C)=O)C1C` (stereo not drawn), the T/C is 100 % of control under setting [4]; 100 % of control under setting [8]; 95 % of control under setting [5]; 90 % of control under setting [9]; 95 % of control under setting [13]; 90 % of control under setting [10].
For `Cc1ccc(C)c2c1CCCC2=O`, the T/C is 86 % of control under setting [3], 90 % of control under setting [4], 100 % of control under setting [5] and 86 % of control under setting [13].
Take `CCCCCCCCCCOP(=S)(N1CC1)N1CC1`: the T/C reads like this: under setting [14], 108 % of control; (dose: 13.0 mg/kg/injection, schedule: Q04DX003 (ip), vehicle: saline with Tween-80) 113 % of control; (dose: 20.0 mg/kg/injection, schedule: Q04DX003 (ip), vehicle: saline with Tween-80) 152 % of control; under setting [15], 245 % of control; (dose: 33.0 mg/kg/injection, schedule: Q04DX003 (ip), vehicle: saline with Tween-80) 169 % of control; (dose: 44.0 mg/kg/injection, schedule: Q04DX003 (ip), vehicle: saline with Tween-80) 195 % of control. The T/C under setting [3] was 183 % of control; the T/C under setting [7] was 226 % of control; the T/C (dose: 67.0 mg/kg/injection, schedule: Q04DX003 (ip), vehicle: saline with Tween-80) is 272 % of control; the T/C (dose: 75.0 mg/kg/injection, schedule: Q04DX003 (ip), vehicle: saline with Tween-80) was 243 % of control; the T/C under setting [8] was 272 % of control; the T/C (dose: 125.0 mg/kg/injection, schedule: Q04DX003 (ip), vehicle: saline with Tween-80) was 165 % of control. Where the note is “dose: 150.0 mg/kg/injection, schedule: Q04DX003 (ip), vehicle: saline with Tween-80”, the T/C is 272 % of control.
As to `CCCCNC(C)(C)C(SS)c1cccs1` (stereo not drawn), the T/C (dose: 100.0 mg/kg/injection, schedule: Q04DX003 (ip), vehicle: other) is 100 % of control and the T/C (dose: 200.0 mg/kg/injection, schedule: Q04DX003 (ip), vehicle: other) was 100 % of control.
For the molecule `Clc1c(CBr)ccc(CBr)c1Cl`, the T/C (dose: 6.25 mg/kg/injection, schedule: Q01DX009 (ip), vehicle: saline with Tween-80) was 104 % of control; the T/C (dose: 6.25 mg/kg/injection, schedule: Q04DX003 (ip), vehicle: saline sonified) is 100 % of control; the T/C under setting [14] is 114 % of control; the T/C (dose: 12.5 mg/kg/injection, schedule: Q04DX003 (ip), vehicle: saline sonified) is 90 % of control; the T/C under setting [15] is 123 % of control; the T/C (dose: 25.0 mg/kg/injection, schedule: Q04DX003 (ip), vehicle: saline sonified) is 90 % of control.

Source of the values: PubChem BioAssay AID328 (DTP/NCI, 2004).
